Results on 25 compounds are retold here after ChEMBL document CHEMBL1201862, “PubChem BioAssay data set” (2004).

A short description of test [1]: microbe, parasite or virus in culture. The format is functional. Particulars: Mycobacterium tuberculosis.
Test [2] can be described thus: growth suppression of PTEN-null colon cells, dose response, cell-based, HCT116 PTEN knockout (AID 1047).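 Note: HCT116 colon tumor cells with PTEN knocked out; cells exposed to compound for 60 hours before readout; potency for loss of cell viability measured by luminescence.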 The format is functional.
Test [3] in a line: growth suppression of beta-catenin-knockout colon cells, dose response, cell-based, HCT116, human colon tumor (AID 1045).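 Note: HCT116 colon tumor cells with beta catenin knocked out; cells exposed to compound for 60 hours.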 The format is functional.
Another test relates to Vero. Nature of the test: cells. The format is functional. Particulars: Chlorocebus sabaeus.
A short description of test [4]: HEp-2 cell cytotoxicity, dose response, cytotoxicity control for RSV inhibitor project, HTS (AID 2410). As to conditions: human respiratory syncytial virus. The class given is functional.
A further test addresses Cytochrome P450 3A4 (Homo sapiens, UniProt P08684). As to conditions: Potency.
In test [5] the target is T1, DNA repair protein RAD52 homolog (Homo sapiens, UniProt P43351).
T1 sequence (P43351 whole entry): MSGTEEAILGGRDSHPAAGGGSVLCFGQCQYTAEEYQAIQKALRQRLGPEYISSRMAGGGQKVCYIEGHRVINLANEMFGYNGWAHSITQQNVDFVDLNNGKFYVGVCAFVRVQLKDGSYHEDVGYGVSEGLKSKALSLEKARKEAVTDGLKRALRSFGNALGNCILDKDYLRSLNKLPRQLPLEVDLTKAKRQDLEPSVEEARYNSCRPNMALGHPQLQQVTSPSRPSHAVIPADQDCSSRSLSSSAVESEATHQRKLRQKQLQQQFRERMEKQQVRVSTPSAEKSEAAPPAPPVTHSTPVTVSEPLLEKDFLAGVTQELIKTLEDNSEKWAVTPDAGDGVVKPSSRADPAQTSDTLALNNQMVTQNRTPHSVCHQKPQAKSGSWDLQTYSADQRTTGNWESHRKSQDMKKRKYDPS
The class given is functional, biochemical.

The target in test [6] is T2, Rac GTPase-activating protein 1 (Homo sapiens, UniProt Q9H0H5).
T2 sequence (Q9H0H5 whole entry): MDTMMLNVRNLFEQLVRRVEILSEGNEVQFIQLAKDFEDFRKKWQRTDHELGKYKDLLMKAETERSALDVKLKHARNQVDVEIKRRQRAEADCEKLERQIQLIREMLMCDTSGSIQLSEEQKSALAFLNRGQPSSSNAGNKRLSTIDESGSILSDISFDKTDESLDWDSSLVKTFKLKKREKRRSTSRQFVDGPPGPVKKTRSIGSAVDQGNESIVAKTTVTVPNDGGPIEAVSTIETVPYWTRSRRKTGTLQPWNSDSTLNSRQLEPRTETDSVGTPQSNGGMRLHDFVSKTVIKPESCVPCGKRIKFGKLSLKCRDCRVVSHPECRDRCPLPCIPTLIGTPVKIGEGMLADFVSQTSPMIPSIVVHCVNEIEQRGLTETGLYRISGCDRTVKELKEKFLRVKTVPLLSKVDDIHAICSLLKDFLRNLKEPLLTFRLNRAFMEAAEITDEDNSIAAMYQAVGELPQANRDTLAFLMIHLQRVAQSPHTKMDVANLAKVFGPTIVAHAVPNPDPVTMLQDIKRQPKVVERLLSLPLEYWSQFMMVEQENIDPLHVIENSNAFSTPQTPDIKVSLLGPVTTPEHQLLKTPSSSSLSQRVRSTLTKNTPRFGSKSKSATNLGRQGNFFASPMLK
Briefly: MgcRacGAP GTPase-activating activity inhibitors, confirmation, biochemical, ADP Hunter fluorescence, primary and confirmatory (AID 624330). The class given is functional.

In test [7] the target is Eukaryotic translation initiation factor 4E (Mus musculus, UniProt P63073). Briefly: eIF4E–eIF4G protein interaction inhibitors, dose response, biochemical, TR-FRET (AID 855).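 Note: potency for disrupting eIF4E binding to eIF4GI seen as loss of FRET.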 The format is functional.
Eukaryotic translation initiation factor 4E, sequence (P63073 whole entry): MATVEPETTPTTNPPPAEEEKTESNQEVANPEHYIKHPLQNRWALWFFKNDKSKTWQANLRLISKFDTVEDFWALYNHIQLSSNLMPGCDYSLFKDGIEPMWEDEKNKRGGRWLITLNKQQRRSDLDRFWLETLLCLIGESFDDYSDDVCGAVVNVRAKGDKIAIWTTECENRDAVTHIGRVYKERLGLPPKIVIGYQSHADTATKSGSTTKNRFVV
A short description of the next test: cells. The class given is functional.
A short description of test [8]: inhibitors of intracellular T. cruzi replication, confirmation, NIH3T3 host cells, beta-gal luminescence (AID 2044).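 Note: intracellular parasites grown in NIH/3T3 mouse fibroblasts as host cells; luminescent beta-galactosidase reporter signal from transgenic T. cruzi replicating inside host cells; inhibitors lower the luminescence signal.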 The class given is functional, cell-based.
Test [9] can be described thus: cytotoxicity toward NIH3T3 fibroblasts, dose response, counter-screen, cell-based, ATP luminescence, mouse fibroblasts (AID 2010).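 Note: cells exposed to compound for about 90 hours before reading.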 The class given is functional.
For test [10], the target named is T3, Ubiquitin-conjugating enzyme E2 N (Homo sapiens, UniProt P61088).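 Note: Dose-response confirmation in a TR-FRET assay detecting UBC13-driven polyubiquitin chain formation, inhibition measured.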
T3 sequence (P61088 whole entry): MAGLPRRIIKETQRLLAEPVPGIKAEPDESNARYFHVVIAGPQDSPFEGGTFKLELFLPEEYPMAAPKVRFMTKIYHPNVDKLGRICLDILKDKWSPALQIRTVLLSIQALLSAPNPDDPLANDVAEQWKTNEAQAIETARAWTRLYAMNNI
The format is functional.

The nature of test [11]: Luminescence Cell-Based Dose Retest to Confirm Inhibitors of Cancer Stem Cells. [Related pubchem assays (depositor defined):AID2717, AID2721]. The class given is functional. As to conditions: Homo sapiens.

Activity calls are given as the source filed them.

Cytochrome P450 3A4, sequence (P08684 whole entry): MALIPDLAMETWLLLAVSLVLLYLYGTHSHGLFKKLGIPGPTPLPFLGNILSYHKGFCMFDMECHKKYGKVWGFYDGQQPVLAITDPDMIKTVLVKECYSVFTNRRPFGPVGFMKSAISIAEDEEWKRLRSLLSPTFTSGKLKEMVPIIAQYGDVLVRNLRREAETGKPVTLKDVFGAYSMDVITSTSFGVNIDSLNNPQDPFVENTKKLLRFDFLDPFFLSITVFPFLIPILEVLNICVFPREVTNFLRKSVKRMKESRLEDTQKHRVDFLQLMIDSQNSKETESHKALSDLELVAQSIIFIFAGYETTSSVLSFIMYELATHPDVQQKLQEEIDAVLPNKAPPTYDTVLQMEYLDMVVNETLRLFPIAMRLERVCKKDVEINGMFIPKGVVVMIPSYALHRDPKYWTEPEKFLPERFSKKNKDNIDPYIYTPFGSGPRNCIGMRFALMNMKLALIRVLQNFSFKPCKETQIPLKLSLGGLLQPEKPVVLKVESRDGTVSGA

Consider `CC(C)(C)NC(=O)[C@@H]1C[C@@H]2CCCC[C@@H]2CN1C[C@@H](O)[C@H](Cc1ccccc1)NC(=O)[C@H](CC(N)=O)NC(=O)c1ccc2ccccc2n1`, for which the CC50 in test [1] is > 40 µM (active).
Consider `C=CCn1c(SCC(=O)c2[nH]c(C)c(C(=O)OCC)c2C)nc2scc(-c3ccc(OC)cc3)c2c1=O`, for which the results for the EC50 in [2] and in test [3] were 1.49 µM (active) and 1.41 µM (active), respectively. Besides, the CC50 in the test with Vero was 6.78 µM (active).
On to `CN(CCNC(=O)c1cc2c(=O)n(C)c3ccccc3c2n1C)Cc1ccccc1`, for which the results for the 50% effective concentration (EC50) in test [2] and in test [3] were 31.5 µM (active) and 23 µM (active), respectively.
Consider `COc1ccc(OC)c(Nc2nc(-c3sc(C)nc3C)cs2)c1`, for which the CC50 in [4] was 20.4 µM (active); in [1], > 40 µM (active).
For the compound `CNC(=O)C1(C)C=CC2(CCCCC2)N1C(=O)OC` (stereo not given), the AC50 at Cytochrome P450 3A4 was 25.1 µM (inconclusive).
Consider `CC1CCCCN1CC(=O)Nc1ccc(N2CCCCCC2)cc1` (stereo not given), for which, in [5], the half-maximal activity concentration (AC50) is 17.4 µM (active). Further, in [6], the IC50 was 101 µM (active).
With `CCOC(=O)c1c(NC(=S)NC(=O)/C=C/c2cccs2)sc(C)c1C`, the EC50 was 21.2 µM (active) in test [2] and 21.4 µM (active) in test [3].
Turning to `CC1=CC(=O)NP(=O)(Oc2ccc3ccccc3c2)N1` (stereo not given), the IC50 is 31.2 µM (active) in test [7] and 80.7 µM (active) in [6].
For `CCC1=C2CC[C@H]3C(=O)NC(=O)[C@H]3[C@H]2[C@@]2(C)C(=O)N(CC3CC3)C(=O)N2C1=O`, the concentration at half-maximal activity (AC50) on Cytochrome P450 3A4 was 31.6 µM (inconclusive).
Consider `CCCCCCc1ccc(N2C[C@H](C)[C@@H](CC(=O)NCc3ccccc3)C2=O)cc1`, for which the CC50 in test [1] was > 40 µM (active).
For the compound `CCN(CC)c1cccc(O)c1`, the half-maximal activity concentration (AC50) on Cytochrome P450 3A4 was 31.6 µM (inconclusive).
With `COc1cccc(-c2cnc(NCc3cc(Cl)ccc3O)n2C)c1`, the CC50 in test [1] is > 40 µM (active).
As to `Cc1nc2ccc(NC(=O)c3ccc([N+](=O)[O-])cc3[N+](=O)[O-])cc2s1`, in “cells”, the concentration for half-maximal inhibition (IC50) is 1.85 µM (active). Besides, the EC50 was 0.654 µM (active) in test [8] and > 60 µM (not active) in test [9].
On to `CCN(CC)CCN(C(=O)c1ccc(C(=O)c2ccccc2)cc1)c1nc2c(OC)cccc2s1`, for which the concentration at half-maximal activity (AC50) in [5] is 17.2 µM (active).
Take `COc1cc2c(cc1OC)C(c1ccccc1N)=NCC2`: the AC50 in [5] is 18.6 µM (active).
Regarding `COC(=O)CNC(=O)C1(CC(C)C)C=CCN1C(C)=O` (stereo not given), the half-maximal activity concentration (AC50) on Cytochrome P450 3A4 is 25.1 µM (inconclusive).
As to `CCOc1ccc(OC(=O)c2ccc3c(=O)n4c(nc3c2)CCC4)cc1`, in “cells”, the IC50 was 0.12 µM (active).
`CC1(C)OC2CC3C4CC(F)C5=CC(=O)C=C[C@@]5(C)[C@@]4(F)C(O)C[C@@]3(C)[C@]2(C(=O)CO)O1` (stereo not given in full): the concentration at half-maximal activity (AC50) on Cytochrome P450 3A4 was 39.8 µM (inconclusive).
Same read-out and setting: the same measure for `Cc1ccc(S(=O)(=O)Oc2ccc(/N=N/c3ccc(-c4ccc(/N=N/c5c(O)ccc6cc(S(=O)(=O)O)cc(S(=O)(=O)O)c56)c(C)c4)cc3C)cc2)cc1`: 25.1 µM (inconclusive).
On to `CCOC(=O)N1CCN(C(=O)C(=O)Nc2sc3c(c2C(N)=O)CC(C)(C)OC3)CC1`, for which, in test [10], the IC50 is > 20 µM (inactive).
In the case of `COc1ccc2[nH]c(SCc3nc(N)nc(Nc4ccccc4)n3)nc2c1`, in [10], the IC50 is > 20 µM (inactive).
Turning to `CC(=O)O[C@H]1[C@@H](O)[C@H](O)[C@H](Oc2c(O)c(C)c3c4c2[C@@H](C)CC[C@@H]4[C@@H](C)C[C@H]3C=C(C)C)O[C@H]1C`, in test [10], the IC50 was > 20 µM (inactive). In [11], the AC50 is 3.19 µM (active).
Take `CNC(C)C(=O)NC(C(=O)N1CCCC1C(=O)Nc1ccc2[nH]ccc2c1)C(C)C` (stereo not given): in [5], the AC50 is 7.54 µM (active).
Regarding `COc1ccccc1/C=C/C(=O)c1cccs1`, the AC50 on Cytochrome P450 3A4 is 25.1 µM (inconclusive).
Take `COc1ccc(/N=c2\cc(-c3ccc(O)cc3)oc3ccccc23)cc1`: the CC50 in test [1] is 32.9 µM (active).
